Values quoted from earlier work in patent US20210251923A1, “METHODS FOR IMPROVING NEUROLOGICAL DISEASES AND DISORDERS” (CuraSen Therapeutics, Inc., priority 2018, published 2021).

Tested on: Ts65Dn mice
Settings: increasing brain NE levels

Question: For `N[C@H](C(=O)O)[C@H](O)c1ccc(O)c(O)c1` [L-DOPS, L-threo-3,4-dihydroxyphenylserine], which contextual learning is on record?
Answer: restored contextual learning
